According to BindingDB's records for doi:10.1016/0922-4106(95)90072-1 (Cocensys, 1995):

Tests used:
[1] = target: Gamma-aminobutyric acid receptor subunit alpha-4 (Homo sapiens, UniProt P48169)
[2] = target: Gamma-aminobutyric acid receptor subunit alpha-6 (Homo sapiens, UniProt Q16445)
Chain of Gamma-aminobutyric acid receptor subunit alpha-6 (Q16445 whole entry): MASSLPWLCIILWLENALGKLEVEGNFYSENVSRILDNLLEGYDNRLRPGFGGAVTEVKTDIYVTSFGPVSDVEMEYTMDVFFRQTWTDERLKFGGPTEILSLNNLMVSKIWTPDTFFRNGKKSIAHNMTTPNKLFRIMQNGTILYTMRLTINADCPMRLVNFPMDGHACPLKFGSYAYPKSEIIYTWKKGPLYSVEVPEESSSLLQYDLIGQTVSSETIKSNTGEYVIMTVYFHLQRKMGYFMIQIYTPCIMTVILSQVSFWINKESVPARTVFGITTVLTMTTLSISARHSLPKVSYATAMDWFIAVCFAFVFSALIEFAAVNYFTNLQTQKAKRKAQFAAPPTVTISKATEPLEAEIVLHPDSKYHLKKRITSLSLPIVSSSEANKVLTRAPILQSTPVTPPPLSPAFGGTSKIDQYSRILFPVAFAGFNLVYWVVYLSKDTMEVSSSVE

Chain of Gamma-aminobutyric acid receptor subunit alpha-4 (P48169 whole entry): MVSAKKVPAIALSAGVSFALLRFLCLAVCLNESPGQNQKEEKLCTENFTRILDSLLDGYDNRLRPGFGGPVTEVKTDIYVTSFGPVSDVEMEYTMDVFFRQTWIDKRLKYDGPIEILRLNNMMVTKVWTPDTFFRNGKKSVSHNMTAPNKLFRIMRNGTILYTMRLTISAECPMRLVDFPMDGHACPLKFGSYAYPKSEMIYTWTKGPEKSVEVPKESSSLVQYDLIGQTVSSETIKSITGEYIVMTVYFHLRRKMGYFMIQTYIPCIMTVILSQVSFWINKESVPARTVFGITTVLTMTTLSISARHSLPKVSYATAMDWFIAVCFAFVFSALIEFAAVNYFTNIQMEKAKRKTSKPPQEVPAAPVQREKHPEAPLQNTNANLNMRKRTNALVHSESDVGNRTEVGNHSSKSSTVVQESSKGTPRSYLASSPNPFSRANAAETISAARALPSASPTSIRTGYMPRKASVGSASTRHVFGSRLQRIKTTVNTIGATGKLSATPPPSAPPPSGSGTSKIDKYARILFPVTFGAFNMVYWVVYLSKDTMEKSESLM

Structure (SMILES) | Ki [1] | Ki [2]
COC(=O)c1cc2c(cn1)[nH]c1ccccc12 | 310 nM | 3260 nM
O=c1c2cnc3ccccc3c2[nH]n1-c1ccc(Cl)cc1 | 35.6 nM | 285 nM
COc1ccc(-n2[nH]c3c(cnc4ccccc43)c2=O)cc1 [2-(4-Methoxy-phenyl)-2,5-dihydro-pyrazolo[4,3-c]quinolin-3-one (CGS 9895)] | 6.8 nM | 43.8 nM
CC(C)(C)OC(=O)c1ncn2c1C1CCCN1C(=O)c1c(Br)cccc1-2 (stereo not drawn) [8-Bromo-7-oxo-3b,4,5,6-tetrahydro-7H-2,6a,11b-triaza-benzo[g]cyclopenta[e]azulene-3-carboxylic acid tert-butyl ester] | 53.5 nM | 54.9 nM
CNC(=O)c1cc2c(cn1)[nH]c1ccccc12 [CAS_4375] | 300 nM | 2510 nM
CCc1c(C(=O)OC)ncc2[nH]c3cc(OC)c(OC)cc3c12 [NSC_104999] | 14.1 nM | 153 nM
CCOC(=O)c1ncn2c1CN(C)C(=O)c1cc(N=[N+]=[N-])ccc1-2 [RO-154513] |  | 11.7 nM
